Source: BindingDB's records for doi:10.1016/j.bmc.2009.03.061 (Gsk, 2009)

How the values were obtained:
[1] = target: cAMP-specific 3',5'-cyclic phosphodiesterase 4D (Homo sapiens, UniProt Q08499); test: Enzyme Inhibition Assay; conditions: pH 7.5; 23 °C
Method: (§1) Inhibition of PDE4 is measured using a luminescence-coupled assay system developed by Cambrex. This assay system couples the formation of AMP, derived from PDE4-catalyzyed hydrolysis of cAMP, to the formation of ATP. The ATP is then used as a substrate for Luciferase and results in light as a signal output. […] This assay is used in a quenched assay format, where PDE4 enzyme and cAMP substrate are added sequentially to a 384 well assay plate (Greiner784075) pre-stamped with compound at the desired concentration. The reaction is incubated at room temperature for 1 h, and then is quenched by the addition of enzyme stop solution and then the light signal is generated by the addition of detection reagent. […] For inhibition curves, compounds were diluted using a 3-fold serial dilution and tested at 11 concentrations. Curves were analysed as describe above using ActivityBase and XLfit , and results were expressed as pIC50 values.

[2] = target: cAMP-specific 3',5'-cyclic phosphodiesterase 4B (Homo sapiens, UniProt Q07343); test: Enzyme Inhibition Assay; conditions: pH 7.5; 23 °C
Method: as §1

cAMP-specific 3',5'-cyclic phosphodiesterase 4D, sequence (Q08499 whole entry): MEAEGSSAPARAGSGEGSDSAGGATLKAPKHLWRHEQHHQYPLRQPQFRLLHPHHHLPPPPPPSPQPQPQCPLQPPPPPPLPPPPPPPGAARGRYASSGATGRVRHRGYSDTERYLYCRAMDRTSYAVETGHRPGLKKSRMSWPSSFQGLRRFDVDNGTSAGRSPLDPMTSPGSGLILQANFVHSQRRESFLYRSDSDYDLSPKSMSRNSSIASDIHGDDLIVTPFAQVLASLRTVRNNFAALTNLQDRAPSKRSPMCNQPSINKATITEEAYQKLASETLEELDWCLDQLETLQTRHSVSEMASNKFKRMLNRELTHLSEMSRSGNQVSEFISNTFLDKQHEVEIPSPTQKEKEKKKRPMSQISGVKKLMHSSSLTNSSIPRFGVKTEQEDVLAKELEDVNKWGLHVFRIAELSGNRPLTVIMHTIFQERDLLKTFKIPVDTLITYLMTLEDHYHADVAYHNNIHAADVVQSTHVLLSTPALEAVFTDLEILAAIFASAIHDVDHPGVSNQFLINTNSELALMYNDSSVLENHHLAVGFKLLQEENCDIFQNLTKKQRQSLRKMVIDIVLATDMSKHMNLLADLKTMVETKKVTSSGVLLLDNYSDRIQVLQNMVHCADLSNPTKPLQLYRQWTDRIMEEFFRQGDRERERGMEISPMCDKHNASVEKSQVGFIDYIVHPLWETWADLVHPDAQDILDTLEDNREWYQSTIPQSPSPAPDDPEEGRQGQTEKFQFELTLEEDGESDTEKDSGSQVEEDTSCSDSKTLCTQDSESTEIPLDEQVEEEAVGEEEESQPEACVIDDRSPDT
cAMP-specific 3',5'-cyclic phosphodiesterase 4B, sequence (Q07343 whole entry): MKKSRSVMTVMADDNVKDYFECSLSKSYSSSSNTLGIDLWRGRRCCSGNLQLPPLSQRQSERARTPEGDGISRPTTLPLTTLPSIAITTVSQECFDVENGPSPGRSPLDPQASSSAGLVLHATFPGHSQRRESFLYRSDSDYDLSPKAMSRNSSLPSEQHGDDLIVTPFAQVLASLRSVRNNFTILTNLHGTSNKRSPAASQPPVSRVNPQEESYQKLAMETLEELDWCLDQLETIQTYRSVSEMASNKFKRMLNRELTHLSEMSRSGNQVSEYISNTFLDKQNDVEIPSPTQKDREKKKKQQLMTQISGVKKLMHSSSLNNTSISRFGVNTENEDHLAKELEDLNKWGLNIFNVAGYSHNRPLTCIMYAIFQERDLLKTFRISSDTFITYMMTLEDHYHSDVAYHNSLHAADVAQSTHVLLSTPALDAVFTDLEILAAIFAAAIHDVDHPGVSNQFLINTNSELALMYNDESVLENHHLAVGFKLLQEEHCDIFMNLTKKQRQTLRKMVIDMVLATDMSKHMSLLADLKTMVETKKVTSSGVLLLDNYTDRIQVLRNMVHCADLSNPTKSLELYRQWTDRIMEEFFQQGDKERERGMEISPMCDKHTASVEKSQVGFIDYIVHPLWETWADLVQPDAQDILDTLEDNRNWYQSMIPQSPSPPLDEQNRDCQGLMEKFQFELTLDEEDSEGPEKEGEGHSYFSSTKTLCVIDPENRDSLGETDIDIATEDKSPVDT

Structure (SMILES) | IC50 [1] | IC50 [2]
CCCC1CCc2c(sc(NC(=O)c3ccccc3[N+](=O)[O-])c2C(N)=O)C1 (centres undefined) [tetrahydrobenzothiophene (THBT), 24] | 2510 nM | 100 nM
Cc1cccc(C)c1C(=O)C1CCCc2sc(NC(=O)c3ccccc3[N+](=O)[O-])c(C(N)=O)c21 (centres undefined) [tetrahydrobenzothiophene (THBT), 18] | 2510 nM | 5010 nM
